Data reported in patent US5677282A (Proscript, Inc., priority 1995, dated 1997).
Where a SMILES comes first, the peptide text is derived from it. [ ]: non-standard residue; d: D form. The star is where a group is joined. Phg = N[CH](C(=O)O)c1ccccc1; Cbz = O=C(OCc1ccccc1)*; X1 = S=c1[nH]nc(N*)s1; Bn = c1ccc(C*)cc1

Legend:
Format in all cases: biochemical
92 kD gelatinase = 92 kD gelatinase (Homo sapiens, UniProt P14780); experiment: Assay of 92 KD gelatinase inhibition activity; settings: 92KD gelatinase 25 pM, H-150 buffer pH 7.4; read-out: Ki(app)
Protocol: H-150 buffer, pH 7.4, was prepared by CaCl2 H2 O (1.47 grams), NaCl (8.77 grams) and N-[2-hydroxyethyl]piperazine-N'-[2-ethanesulfonic acid](23.83 grams) to distilled and deionized water and then bring the final volume of the solution to 1 liter. A reaction mixture having a final volume of 500 μL was prepared with H-150 buffer, 200 μgrams of Pro-92KD gelatinase (Strongin et al., J. Biol. Chem., 268:14033 (1993); Goldberg, et al., J. Biol. Chem., 267:4583 (1992); Okada et al., J. Biol. Chem. 267:21712 (1992)), p-aminophenyl mercuric acetate (Sigma Chemical Co., St. Louis, Mo.) (1 mM) and Brij (dodexylpoly(oxyethyleneglycolether))(0,008% w/v). The reaction mixture wsa then incubated for 24 hours at 37° C.
The reaction mixture was applied to a NAP-5 column (G-25 SEPHADEX™, Pharmacia). Fractions containing 72KD gelatinase were identified using 12% polyacrylamide gel electrophoresis and concentrated to about 100-200 μliters by centrifigation (5000 g, 1 hour).
(§1) A solution containing H-150 buffer (2.0 mL), 92KD gelatinase (25 pM) and ethylphenolpoly(ethylene-glycolether)n (Boerhringer Mannheim) (4.0 μM) was prepared in a stirred cuvette. Coumarin peptide substrate (4 μL of a 5 mM solution in dimethyl sulfoxide) was added to the reaction mixture. The rate of hydrolysis was determined for about 100-200 seconds by measuring the fluorescence of the reaction at ex328 nanometers and […] using a Hitachi F-2000 Fluorescence Spectrophotometer.
(§2) 2 μL of a 10 mM inhibitor stock solution (in dimethyl sulfoxide) is added and the reduction in the rate of hydrolysis is determined. Additional 2 μL aliquots of the stock inhibitor solution is added until a 30% to 70% inhibition is observed. Ki is calculated on the assumption of simple competitive inhibition and that the substrate concentration is much less than Km.

72 kD gelatinase = target: T1, 72 kD gelatinase (Homo sapiens, UniProt P08253); experiment: Assay of 72 KD gelatinase inhibition activity; settings: 72KD gelatinase 180 pM, H-150 buffer pH 7.4; read-out: Ki(app)
T1 sequence (P08253 110-660): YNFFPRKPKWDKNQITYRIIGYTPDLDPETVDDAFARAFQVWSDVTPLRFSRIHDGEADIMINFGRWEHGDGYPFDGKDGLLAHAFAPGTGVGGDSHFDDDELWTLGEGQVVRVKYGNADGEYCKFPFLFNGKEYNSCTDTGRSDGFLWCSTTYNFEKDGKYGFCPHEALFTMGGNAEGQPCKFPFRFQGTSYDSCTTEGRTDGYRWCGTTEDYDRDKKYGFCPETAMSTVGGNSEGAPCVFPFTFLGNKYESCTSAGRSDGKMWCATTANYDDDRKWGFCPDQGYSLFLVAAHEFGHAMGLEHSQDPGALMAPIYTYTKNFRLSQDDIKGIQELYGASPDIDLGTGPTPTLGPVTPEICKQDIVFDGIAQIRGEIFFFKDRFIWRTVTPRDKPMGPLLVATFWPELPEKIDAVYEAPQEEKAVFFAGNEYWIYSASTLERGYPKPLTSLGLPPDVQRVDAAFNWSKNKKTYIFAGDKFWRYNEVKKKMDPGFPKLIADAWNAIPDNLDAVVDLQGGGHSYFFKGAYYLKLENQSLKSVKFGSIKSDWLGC
Protocol: H-150 buffer, pH 7.4, was prepared by CaCl2 H2O (1.47 grams), NaCl (8.77 grams) and N-[2 -hydroxyethyl]piperazine-N'-[2-ethanesulfonic acid](23.83 grams) to distilled and deionized water and then bring the final volume of the solution to 1 liter. An reaction mixture having a final volume of 250 μL was prepared with H-150 buffer, 40 μgrams of Pro-72KD gelatinase (Strongin, et al., J. Biol. Chem. 268:14033 (1993); Goldberg, et al., J. Biol. Chem., 267:4583 (1992); Kleiner, et al., Biochemistry 32:1583 (1993)) and p-aminophenyl mercuric acetate (Sigma Chemical Co., St. Louis, Mo.) (1 mM). The reaction mixture was then incubated for 3 hours at 25° C.
The reaction mixture was applied to a NAP-5 column (G-25 SEPHADEX™, Pharmacia). Fractions containing […] were identified using 12% SDS polyacrylamide gel electrphoresis and concentrated to about 100-200 μliters by centrifigation (5000 g, 15 minutes).
as §1, with “mL), 72KD” for “mL), 92KD”, “gelatinase (180” for “gelatinase (25”, “Mannheim) (1.3” for “Mannheim) (4.0”, “substrate (2” for “substrate (4”, “a 1” for “a 5”
as §2

stromelysin = stromelysin (Homo sapiens, UniProt P08254); experiment: Assay of stromelysin inhibition activity (fluorogenic coumarin peptide substrate); settings: trypsin-activated stromelysin 2 nM, H-150 buffer pH 7.4, room temperature; read-out: Ki(app)
Protocol: Stromelysin was first activated with trypsin. This was done by preparing a reaction mixture in H-150 (H-150 consists of 10 mM CaCl2, 150 mM NaCl and 100 mM HEPES at pH 7.4) containing a final concentration of 25 μg/mL trypsin and 2.2 μM of stromelysin (Marcy et al., Biochemistry,30:6476 (1991); Koklitis et al., Biochem. J., 376:217 (1991). The reaction was incubated for 30 minutes at 37° C. and then quenched by adding trypsin inhibitor agarose to the reaction mixture at a 20 fold excess with respect to trypsin.
The reaction mixture was centrifuged at 14,000 rpm (16,000 ×g) for 30 minutes using an Eppendorf Centrifuge 5415C. The supernant, which contains activated stromelysin, was concentrated with a Centricon 10 (5000 g, 1 hour). A sample was analyzed by Bradford total protein assay and 12% SDS polyacrylamide gel electrophoresis.
All steps of the stromelysin inhibition assay were performed at room temperature. Assay solutions were prepared for each inhibitor tested. Activated stromelysin was added to a stirred covelte to a final concentration of 2 nM in 2 mL of H-150 buffer. 4 μL 5 mM coumarin peptide substrate was dissolved in DMSO and the initial rate of hydrolysis was measured for 100-200 seconds.
Substrate hydrolysis was assessed by fluorescence using a slit width of 10:10, excitation at 328 nm and emission at 393 nm. Ki was calculated based on the assumption of simple competitive inhibition and a substrate concentration much less than Km. 2 μL of 10 mM inhibitor in DMSO was added and the reduction in hydrolysis rate measured. The addition of 2 μL of inhibitor was continued until a 30-70% inhibition was observed.

[1] = target: human neutrophil collagenase (Homo sapiens, UniProt P22894); experiment: Assay of human neutrophil collagenase inhibition activity; settings: human neutrophil collagenase 2 nM, H-150 buffer pH 7.4; read-out: Ki(app)
Protocol: H-150 buffer, pH 7.4, was prepared by adding CaCl2 H2 O (1.47 grams), NaCl (8.77 grams) and N-[2-hydroxyethyl]piperazine-N'-[2-ethanesulfonic acid] (23.83 grams) to distilled and deionized water and then bringing the final volume of the solution to 1 liter.
A reaction mixture with a final volume of 2.0 mL was prepared from H-150 buffer, human neutrophil collagenase (Schnierer, et al., Blochem. Biophys. Res. Comm., 191:319 (1993); Knight et al., Federation of Europena Biochemical Societies 296:263 (1992)) (2 nM). Coumarin peptide substrate (4 μL of a 5 mM solution in dimethyl sulfoxide) was added to the reaction mixture. The rate of hydrolysis was determined for about 100-200 seconds by measuring the fluorescence of the reaction at ex328 nanometers and […] using a Hitachi F-2000 Fluorescence Spectrophotometer.
as §2

human neutrophil collagenase, sequence (P22894 101-467): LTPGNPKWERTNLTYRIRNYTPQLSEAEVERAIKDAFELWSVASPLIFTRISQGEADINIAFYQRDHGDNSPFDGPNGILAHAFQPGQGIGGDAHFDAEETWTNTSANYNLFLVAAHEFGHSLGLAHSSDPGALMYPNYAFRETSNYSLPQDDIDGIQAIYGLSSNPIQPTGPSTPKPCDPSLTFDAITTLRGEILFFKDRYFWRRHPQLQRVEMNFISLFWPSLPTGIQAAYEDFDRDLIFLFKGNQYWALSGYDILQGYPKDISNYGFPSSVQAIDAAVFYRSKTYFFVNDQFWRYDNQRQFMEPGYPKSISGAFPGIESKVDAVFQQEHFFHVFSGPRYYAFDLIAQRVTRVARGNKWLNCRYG
92 kD gelatinase, sequence (P14780 107-707): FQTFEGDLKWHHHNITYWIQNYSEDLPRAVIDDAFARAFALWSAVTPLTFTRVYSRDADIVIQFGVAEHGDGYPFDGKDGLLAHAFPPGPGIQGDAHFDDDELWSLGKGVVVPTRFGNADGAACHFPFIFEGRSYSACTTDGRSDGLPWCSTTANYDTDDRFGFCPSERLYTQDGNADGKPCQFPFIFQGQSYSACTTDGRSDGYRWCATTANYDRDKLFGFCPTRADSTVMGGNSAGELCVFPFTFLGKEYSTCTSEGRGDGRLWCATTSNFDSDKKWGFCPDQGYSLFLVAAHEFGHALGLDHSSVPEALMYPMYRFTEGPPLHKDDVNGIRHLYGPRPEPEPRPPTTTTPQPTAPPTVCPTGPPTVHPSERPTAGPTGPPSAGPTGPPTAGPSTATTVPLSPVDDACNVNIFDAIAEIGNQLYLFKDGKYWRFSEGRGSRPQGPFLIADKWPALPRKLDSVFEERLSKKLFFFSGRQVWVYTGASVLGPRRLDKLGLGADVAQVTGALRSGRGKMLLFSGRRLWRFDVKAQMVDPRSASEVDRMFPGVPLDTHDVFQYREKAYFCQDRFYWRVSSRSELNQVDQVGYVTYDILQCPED
stromelysin, sequence (P08254 100-477): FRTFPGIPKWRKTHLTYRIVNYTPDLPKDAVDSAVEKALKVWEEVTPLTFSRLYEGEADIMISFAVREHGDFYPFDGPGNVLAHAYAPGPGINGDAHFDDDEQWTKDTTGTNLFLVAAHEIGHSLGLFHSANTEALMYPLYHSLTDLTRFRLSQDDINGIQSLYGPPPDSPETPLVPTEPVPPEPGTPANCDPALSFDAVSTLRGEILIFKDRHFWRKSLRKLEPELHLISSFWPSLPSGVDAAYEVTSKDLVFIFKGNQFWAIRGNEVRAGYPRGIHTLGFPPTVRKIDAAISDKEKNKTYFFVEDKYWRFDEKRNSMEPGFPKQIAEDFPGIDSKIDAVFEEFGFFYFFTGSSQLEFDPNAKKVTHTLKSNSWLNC

O=C(N[C@@H](Cc1ccc(OCc2ccccc2)cc1)C(=O)N[C@@H](Cc1ccccc1)C(=O)Nc1n[nH]c(=S)s1)OCc1ccccc1
Ki (92 kD gelatinase): 0.15 nM

CSCC[C@H](NC(=O)[C@H](Cc1ccccc1)NC(=O)OCc1ccccc1)C(=O)N[C@@H](Cc1ccc(OCc2ccccc2)cc1)C(=O)N[C@H](C(=O)Nc1n[nH]c(=S)s1)c1ccccc1
Ki (72 kD gelatinase): 0.2 nM

O=C(N[C@H](C(=O)Nc1n[nH]c(=S)s1)c1ccccc1)[C@H](Cc1ccc(OCc2ccccc2)cc1)NC(=O)[C@@H]1CCCN1C(=O)OCc1ccccc1
Ki (92 kD gelatinase): 0.76 nM

CC(C)[C@H](NC(=O)[C@H](Cc1ccccc1)NC(=O)c1ccc(NS(=O)(=O)c2ccc(C(C)(C)C)cc2)cc1)C(=O)Nc1n[nH]c(=S)s1 [5-(N-(4-(4-t-Butylphenylsulfonylamino)benzoyl)-phenylalanyl-valylamino)-1,3,4-thiadiazole-2-thione]
Ki (stromelysin): 44 nM | Ki [1]: 1.04 nM | Ki (72 kD gelatinase): 0.68 nM | Ki (92 kD gelatinase): 0.31 nM

CC(C)[C@H](NC(=O)[C@H](Cc1ccccc1)NC(=O)c1ccc(Oc2ccccc2)cc1)C(=O)Nc1n[nH]c(=S)s1 [5-(N-(4-phenoxy)benzoyl-phenylalanyl-valylamino)-1,3,4-thiadiazole-2-thione]
Ki (stromelysin): 101 nM | Ki [1]: 1.67 nM

CC(C)[C@H](NC(=O)[C@H](Cc1ccccc1)NC(=O)c1ccc(-c2ccccc2)cc1)C(=O)Nc1n[nH]c(=S)s1 [5-(N-(4-phenylbenzoyl)phenylalanyl-valylamino)-1,3,4-thiadiazole-2-thione]
Ki (stromelysin): 82 nM | Ki [1]: 2.6 nM | Ki (72 kD gelatinase): 0.8 nM | Ki (92 kD gelatinase): 0.31 nM

O=C(N[C@@H](Cc1ccccc1)C(=O)Nc1n[nH]c(=S)s1)OCC1c2ccccc2-c2ccccc21 [5-(N-(9-fluorenylmethoxycarbonyl)-phenylalanylamino)-1,3,4-thiadiazole-2-thione]
Ki (92 kD gelatinase): 0.23 nM

CC(C)C[C@H](NC(=O)[C@H](Cc1ccc(OCc2ccccc2)cc1)NC(=O)OCc1ccccc1)C(=O)Nc1n[nH]c(=S)s1 [5-(N-benzyloxycarbonyl-((O-benzyl)tyrosyl)-leucylamino)-1,3,4-thiadiazole-2-thione]
Ki (stromelysin): 96 nM | Ki [1]: 1.83 nM | Ki (72 kD gelatinase): 0.24 nM | Ki (92 kD gelatinase): 0.29 nM

O=C(CNC(=O)[C@H](Cc1ccc(OCc2ccccc2)cc1)NC(=O)OCc1ccccc1)Nc1n[nH]c(=S)s1 [5-(N-benzyloxycarbonyl-(O-Benzyl)tyrosyl-glycylamino)-1,3,4-thiadiazole-2-thione]
Ki (72 kD gelatinase): 0.38 nM

O=C(CNC(=O)OCc1ccccc1)NC(Cc1ccc(O)cc1)C(=O)NC(Cc1ccc(OCc2ccccc2)cc1)C(=O)NC(C(=O)Nc1n[nH]c(=S)s1)c1ccccc1 (centres unmarked) [5-(N-benzyloxycarbonyl-glycyl-tyrosyl-(O-benzyl)tyrosyl)-phenylglycylamino)-1,3,4-thiadiazole-2-thione] (Cbz-GYY(Bn)[Phg]-X1; configuration not given here)
Ki (stromelysin): 110 nM | Ki (72 kD gelatinase): 0.073 nM

C[C@H](NC(=O)[C@H](Cc1ccccc1)NC(=O)OCc1ccccc1)C(=O)Nc1n[nH]c(=S)s1 [5-(N-benzyloxycarbonyl-phenylalanyl-alanylamino)-1,3,4-thiadiazole-2-thione]
Ki (stromelysin): 1400 nM | Ki (92 kD gelatinase): 3.6 nM

O=C(N[C@@H](Cc1ccccc1)C(=O)N[C@@H](CCc1ccccc1)C(=O)Nc1n[nH]c(=S)s1)OCc1ccccc1 [5-(N-benzyloxycarbonyl-phenylalanyl-homophenylalanylamino)-1,3,4-thiadiazole-2-thione]
Ki [1]: 2.9 nM | Ki (72 kD gelatinase): 0.95 nM

CC(C)C[C@H](NC(=O)[C@H](Cc1ccccc1)NC(=O)OCc1ccccc1)C(=O)N[C@@H](Cc1c[nH]c2ccccc12)C(=O)Nc1n[nH]c(=S)s1 [5-(N-benzyloxycarbonyl-phenylalanyl-leucyl-tryptonylamino)-1,3,4-thiadiazole-2-thione]
Ki (stromelysin): 246 nM | Ki [1]: 1.45 nM

CC(C)(C)OC(=O)N[C@@H](Cc1ccc(OCc2ccccc2)cc1)C(=O)NC(C(=O)Nc1n[nH]c(=S)s1)c1ccccc1 (some centres unmarked) [5-(N-t-Butoxycarbonyl-(O-benzyl)tyrosyl-phenylglycineamino)-1,3,4-thiadiazole-2-thione]
Ki [1]: 0.99 nM | Ki (72 kD gelatinase): 0.51 nM | Ki (92 kD gelatinase): 0.245 nM

CC(C)C[C@H](NC(=O)OC(C)(C)C)C(=O)Nc1n[nH]c(=S)s1 [5-(N-t-butoxycarbonyl-leucylamino)-1,3,4-thiadiazole-2-thione]
Ki (stromelysin): 10200 nM

CC(C)[C@H](NC(=O)[C@H](Cc1ccc([N+](=O)[O-])cc1)NC(=O)OCc1ccccc1)C(=O)Nc1n[nH]c(=S)s1 [5-(benzyloxycarbonyl-(p-nitro)phenylalanyl-valylamino)-1,3,4-thiadiazole-2-thione]
Ki (stromelysin): 180 nM
